Converted amounts (≈) assume the structure as drawn.
Tests used:
[1] = tested on: Staphylococcus epidermidis; test: Antibacterial activity against clinical isolate Staphylococcus epidermidis NKC 37/1 assessed as reduction in microbial growth incubated for 24 hrs by broth microdilution method; format: functional
[2] = tested on: Staphylococcus epidermidis; test: Antibacterial activity against clinical isolate Staphylococcus epidermidis assessed as reduction in microbial growth incubated for 24 hrs by broth microdilution method; format: functional
[3] = Toxicity in female F1 C57Bl6 x CBA mouse assessed as mortality at 125 mg/kg, po; format: organism-based; settings: in vivo
Klebsiella aerogenes = test: Antibacterial activity against clinical isolate Enterobacter aerogenes NKC 8 assessed as reduction in microbial growth incubated for 24 hrs by broth microdilution method; format: functional
Staphylococcus aureus [4] = test: Antibacterial activity against clinical isolate Staphylococcus aureus 1812 assessed as reduction in microbial growth incubated for 24 hrs by broth microdilution method; format: functional
[5] = Cytotoxicity against human MSC assessed as reduction in cell viability incubated for 72 hrs by MTT assay; format: toxicity, cell-based; settings: MSC cells
[6] = Toxicity in po dosed rat assessed as lethal dose; format: organism-based; settings: in vivo
Salmonella typhimurium = test: Antibacterial activity against Salmonella typhimurium TA100 assessed as reduction in microbial growth incubated for 24 hrs by broth microdilution method; format: functional, Salmonella enterica subsp. enterica serovar Typhimurium; settings: Salmonella enterica
Cedecea davisae = test: Antibacterial activity against clinical isolate Cedecea davisae 1813 assessed as reduction in microbial growth incubated for 24 hrs by broth microdilution method; format: functional
[7] = Cytotoxicity against human HSF assessed as reduction in cell viability incubated for 72 hrs by MTT assay; format: toxicity, cell-based; settings: HSF cells
Topoisomerase IV = Topoisomerase IV (Staphylococcus aureus, UniProt P0C1S7+P0C1U9); test: Inhibition of Staphylococcus aureus topoisomerase-IV assessed as reduction in decatenation using kinetoplast DNA as substrate incubated for 30 mins by ethidium bromide staining based agarose gel electrophoresis method; format: protein-complex assay
[8] = Toxicity in F1 C57Bl6 x CBA mouse assessed as mortality at 1000 to 2000 mg/kg, po relative to control; format: organism-based; settings: in vivo, dose 1000-2000 mg/kg
[9] = Toxicity in male rat assessed as mortality at 2000 mg/kg, po; format: organism-based; settings: in vivo
Pseudomonas aeruginosa [10] = test: Antibacterial activity against Pseudomonas aeruginosa ATCC 27853 assessed as reduction in microbial growth incubated for 24 hrs by broth microdilution method; format: functional
Escherichia coli [11] = test: Antibacterial activity against Escherichia coli ATCC 25922 assessed as reduction in microbial growth incubated for 24 hrs by broth microdilution method; format: functional
Micrococcus luteus = test: Antibacterial activity against clinical isolate Micrococcus luteus assessed as reduction in microbial growth incubated for 24 hrs by broth microdilution method; format: functional
[12] = Genotoxicity in Salmonella typhimurium TA102 by Ames test; format: toxicity; settings: salmonella enterica subsp. enterica serovar typhimurium
[13] = Toxicity in female F1 C57Bl6 x CBA mouse assessed as mortality at 1000 mg/kg, po; format: organism-based; settings: in vivo
[14] = Toxicity in F1 C57Bl6 x CBA mouse assessed as mortality at […] 125 to 500 mg/kg, po relative to control; format: organism-based; settings: in vivo, at 125 to 500 mg/kg, dose 125-500 mg/kg
Klebsiella pneumoniae = test: Antibacterial activity against clinical isolate Klebsiella pneumoniae 1678 assessed as reduction in microbial growth incubated for 24 hrs by broth microdilution method; format: functional
[15] = Cytotoxicity against human CHL assessed as reduction in cell viability incubated for 72 hrs by MTT assay; format: toxicity, cell-based; settings: CHL cells
Staphylococcus aureus [16] = test: Antibacterial activity against clinical isolate Staphylococcus aureus 4721 assessed as reduction in microbial growth incubated for 24 hrs by broth microdilution method; format: functional
[17] = Genotoxicity in Salmonella typhimurium TA98 by Ames test; format: toxicity; settings: salmonella enterica subsp. enterica serovar typhimurium
[18] = Toxicity in rat assessed as liver darkening at 2000 mg/kg, po after 14 days; format: organism-based; settings: in vivo, 336 h, time 14 day
[19] = Toxicity in po dosed female F1 C57Bl6 x CBA mouse assessed as lethal dose; format: organism-based; settings: in vivo
Pseudomonas aeruginosa [20] = test: Antibacterial activity against clinical isolate Pseudomonas aeruginosa NKC 17 assessed as reduction in microbial growth incubated for 24 hrs by broth microdilution method; format: functional
[21] = tested on: Staphylococcus auricularis; test: Antibacterial activity against clinical isolate Staphylococcus auricularis NKC 7 assessed as reduction in microbial growth incubated for 24 hrs by broth microdilution method; format: functional
Staphylococcus aureus [22] = test: Antibacterial activity against clinical isolate methicillin resistant Staphylococcus aureus 4771 assessed as reduction in microbial growth incubated for 24 hrs by broth microdilution method; format: functional
[23] = tested on: Staphylococcus haemolyticus; test: Antibacterial activity against clinical isolate Staphylococcus haemolyticus 1464 assessed as reduction in microbial growth incubated for 24 hrs by broth microdilution method; format: functional
Enterococcus faecalis = test: Antibacterial activity against clinical isolate Enterococcus faecalis 1465 assessed as reduction in microbial growth incubated for 24 hrs by broth microdilution method; format: functional
[24] = Toxicity in male F1 C57Bl6 x CBA mouse assessed as mortality at 1000 to 2000 mg/kg, po; format: organism-based; settings: in vivo, dose 1000-2000 mg/kg
Escherichia coli [25] = test: Antibacterial activity against clinical isolate Escherichia coli NKC 1 assessed as reduction in microbial growth incubated for 24 hrs by broth microdilution method; format: functional
[26] = Toxicity in F1 C57Bl6 x CBA mouse assessed as liver darkening at 125 mg/kg, po after 14 days; format: organism-based; settings: in vivo, 336 h, time 14 day
[27] = Toxicity in male F1 C57Bl6 x CBA mouse assessed as mortality at 125 mg/kg, po; format: organism-based; settings: in vivo
[28] = Toxicity in po dosed male F1 C57Bl6 x CBA mouse assessed as lethal dose; format: organism-based; settings: in vivo
Bacillus subtilis = test: Antibacterial activity against Bacillus subtilis 168 assessed as reduction in microbial growth incubated for 24 hrs by broth microdilution method; format: functional
[29] = tested on: Staphylococcus haemolyticus; test: Antibacterial activity against clinical isolate Staphylococcus haemolyticus NKC 31/2 assessed as reduction in microbial growth incubated for 24 hrs by broth microdilution method; format: functional
DNA gyrase [30] = target: T1, DNA gyrase (Staphylococcus aureus, UniProt P0A0K8+P20831); test: Inhibition of Staphylococcus aureus DNA gyrase using supercoiled pBR322 DNA as substrate incubated for 60 mins by ethidium bromide staining based agarose gel electrophoresis method; format: protein-complex assay
[31] = Toxicity in rat assessed as kidney darkening at 2000 mg/kg, po after 14 days; format: organism-based; settings: in vivo, 336 h, time 14 day
[32] = Toxicity in F1 C57Bl6 x CBA mouse assessed as kidney darkening at 125 mg/kg, po after 14 days; format: organism-based; settings: in vivo, 336 h, time 14 day
Staphylococcus aureus [33] = test: Antibacterial activity against methicillin sensitive Staphylococcus aureus ATCC 29213 assessed as reduction in microbial growth incubated for 24 hrs by broth microdilution method; format: functional
[34] = Genotoxicity in Salmonella typhimurium TA100 by Ames test; format: toxicity; settings: salmonella enterica subsp. enterica serovar typhimurium
DNA gyrase [35] = target: T1, DNA gyrase; test: Inhibition of Staphylococcus aureus DNA gyrase using relaxed pBR322 DNA as substrate incubated for 30 mins by ethidium bromide staining based agarose gel electrophoresis method; format: protein-complex assay

COc1c(N2C[C@@H]3CCCN(Cc4cnc(C)c(O)c4C)[C@@H]3C2)c(F)cc2c(=O)c(C(=O)O)cn(C3CC3)c12.Cl.Cl
MIC [1]: 0.06 µg/mL | MIC [2]: 0.5 µg/mL | Activity [3]: Non-Toxic | MIC (Klebsiella aerogenes): 16 µg/mL | MIC (Staphylococcus aureus [4]): 0.25 µg/mL | CC50 at 72 h [5]: 12.7 µg/mL | LD50 [6]: > 2000 mg/kg | MIC (Salmonella typhimurium): 1 µg/mL | MIC (Cedecea davisae): 0.03 µg/mL | CC50 at 72 h [7]: 17.6 µg/mL | IC50 (Topoisomerase IV): 26.2 µM | mortality [8]: > 80% | Activity [9]: Non-Toxic | MIC (Pseudomonas aeruginosa [10]): 1 µg/mL | MIC (Escherichia coli [11]): 2 µg/mL | MIC (Micrococcus luteus): 0.5 µg/mL | Activity [12]: Non-Toxic | Activity [13]: Toxic | mortality [14]: 0% | MIC (Klebsiella pneumoniae): 64 µg/mL | CC50 at 72 h [15]: 8.22 µg/mL | MIC (Staphylococcus aureus [16]): 0.06 µg/mL | Activity [17]: Non-Toxic | Activity [18]: Toxic | LD50 [19]: 541 mg/kg | MIC (Pseudomonas aeruginosa [20]): 64 µg/mL | MIC [21]: 0.03 µg/mL | MIC (Staphylococcus aureus [22]): 0.06 µg/mL | MIC [23]: 0.06 µg/mL | MIC (Enterococcus faecalis): 4 µg/mL | Activity [24]: Toxic | MIC (Escherichia coli [25]): 2 µg/mL | Activity [26]: Non-Toxic | Activity [27]: Non-Toxic | LD50 [28]: 406 mg/kg | MIC (Bacillus subtilis): 0.5 µg/mL | MIC [29]: 8 µg/mL | IC50 (DNA gyrase [30]): > 656 µM | Activity [31]: Toxic | Activity [32]: Non-Toxic | MIC (Staphylococcus aureus [33]): 0.5 µg/mL | Activity [34]: Non-Toxic | IC50 (DNA gyrase [35]): 85.3 µM

COc1c(N2C[C@@H]3CCCN[C@@H]3C2)c(F)cc2c(=O)c(C(=O)O)cn(C3CC3)c12 [MOXIFLOXACIN]
CC50 at 72 h [5]: 39.4 µg/mL (≈ 98.2 µM) | MIC (Salmonella typhimurium): 1 µg/mL | CC50 at 72 h [7]: 36.5 µg/mL (≈ 90.8 µM) | IC50 (Topoisomerase IV): 29.9 µM | MIC (Pseudomonas aeruginosa [10]): 4 µg/mL | MIC (Escherichia coli [11]): 1 µg/mL | CC50 at 72 h [15]: 35 µg/mL (≈ 87.2 µM) | MIC (Bacillus subtilis): 2 µg/mL | MIC (Staphylococcus aureus [33]): 0.5 µg/mL

CCn1cc(C(=O)O)c(=O)c2cc(F)c(N3CCN(Cc4cnc(C)c(O)c4CO)C(C)C3)c(F)c21.Cl (stereo not given)
MIC [1]: 1 µg/mL | MIC [2]: 1 µg/mL | MIC (Klebsiella aerogenes): 8 µg/mL | MIC (Staphylococcus aureus [4]): 1 µg/mL | CC50 at 72 h [5]: 13.1 µg/mL | MIC (Salmonella typhimurium): 2 µg/mL | MIC (Cedecea davisae): 2 µg/mL | CC50 at 72 h [7]: 22.3 µg/mL | MIC (Pseudomonas aeruginosa [10]): 4 µg/mL | MIC (Escherichia coli [11]): 8 µg/mL | MIC (Micrococcus luteus): 0.5 µg/mL | MIC (Klebsiella pneumoniae): > 64 µg/mL | CC50 at 72 h [15]: 7.85 µg/mL | MIC (Staphylococcus aureus [16]): 1 µg/mL | MIC (Pseudomonas aeruginosa [20]): > 64 µg/mL | MIC [21]: 0.13 µg/mL | MIC (Staphylococcus aureus [22]): 1 µg/mL | MIC [23]: 1 µg/mL | MIC (Enterococcus faecalis): 8 µg/mL | MIC (Escherichia coli [25]): 2 µg/mL | MIC (Bacillus subtilis): 0.5 µg/mL | MIC [29]: 16 µg/mL | MIC (Staphylococcus aureus [33]): 2 µg/mL

Source: ChEMBL document CHEMBL5634112, “Synthesis and biological evaluation of fluoroquinolones containing a pyridoxine derivatives moiety” (Eur J Med Chem, 2023)
